Here are results for eight compounds from publication PMC9471048, “The signaling and selectivity of α‐adrenoceptor agonists for the human α2A, α2B and α2C‐adrenoceptors and comparison with human α1 and β‐adrenoceptors” (Pharmacology Research & Perspectives, 2022).

The target of test [1] is T1, human α2C‐adrenoceptor (Homo sapiens, UniProt P18825).
T1 sequence (P18825 1-462): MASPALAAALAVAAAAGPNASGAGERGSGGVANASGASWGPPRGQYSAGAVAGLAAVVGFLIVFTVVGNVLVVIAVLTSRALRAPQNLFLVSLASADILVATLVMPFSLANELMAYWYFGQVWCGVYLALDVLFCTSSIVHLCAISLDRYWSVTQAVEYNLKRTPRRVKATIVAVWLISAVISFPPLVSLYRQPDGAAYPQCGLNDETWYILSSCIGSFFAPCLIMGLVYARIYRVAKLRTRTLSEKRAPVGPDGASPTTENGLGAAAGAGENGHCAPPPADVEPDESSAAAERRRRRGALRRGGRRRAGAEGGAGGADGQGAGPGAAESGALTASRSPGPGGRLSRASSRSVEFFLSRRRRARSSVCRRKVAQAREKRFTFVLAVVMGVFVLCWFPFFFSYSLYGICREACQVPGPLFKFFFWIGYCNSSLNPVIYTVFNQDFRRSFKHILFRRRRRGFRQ
As to the kind of experiment: ERK1/2‐phosphorylation in CHO‐α2C cells. The format is cell-based. The arrangement: expressed in transfected cells; host or cells: CHO-K1 with CRE-SPAP reporter.

Test [2] concerns the target T1, human α2C‐adrenoceptor.
Test [3] has as its target T2, human α2A‐adrenoceptor (Homo sapiens, UniProt P08913).
T2 sequence (P08913 1-465): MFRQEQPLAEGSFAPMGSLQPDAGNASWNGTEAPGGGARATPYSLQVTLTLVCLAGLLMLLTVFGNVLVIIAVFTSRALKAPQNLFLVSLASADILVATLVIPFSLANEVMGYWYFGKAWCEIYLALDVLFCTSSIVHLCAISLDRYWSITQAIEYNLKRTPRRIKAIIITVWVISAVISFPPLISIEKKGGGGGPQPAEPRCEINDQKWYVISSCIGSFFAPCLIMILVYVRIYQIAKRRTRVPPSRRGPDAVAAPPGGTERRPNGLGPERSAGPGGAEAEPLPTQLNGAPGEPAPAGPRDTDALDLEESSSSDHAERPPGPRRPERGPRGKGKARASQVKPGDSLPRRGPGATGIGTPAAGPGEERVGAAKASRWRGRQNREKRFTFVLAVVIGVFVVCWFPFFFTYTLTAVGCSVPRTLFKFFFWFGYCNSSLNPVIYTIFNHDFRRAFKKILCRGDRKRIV

Test [4] deals with T2, human α2A‐adrenoceptor. As to the kind of experiment: ERK1/2‐phosphorylation in CHO‐α2A cells. The arrangement: expressed in transfected cells; host or cells: CHO-K1 with CRE-SPAP reporter. The format is cell-based.
In test [5] the target is T1, human α2C‐adrenoceptor. As to the kind of experiment: 3H‐rauwolscine whole cell binding in CHO‐α2C cells. The arrangement: expressed in transfected cells; host or cells: CHO-K1 with CRE-SPAP reporter.
Test [6] addresses T2, human α2A‐adrenoceptor. As to the kind of experiment: 3H‐rauwolscine whole cell binding in CHO‐α2A cells. The arrangement: expressed in transfected cells; host or cells: CHO-K1 with CRE-SPAP reporter.
Setting [7] is: CHO‐α2C cells, CRE‐SPAP production in the absence of forskolin.
Setting [8] is: CHO‐α2C cells, 3H‐rauwolscine whole cell binding, given as negative log KD, mean only (SEM in Table 4).
Setting [9] is: CHO‐α2C cells, maximum response compared to 10 μM PDBu, mean ± SEM.
Where [10] appears, read: CHO‐α2C cells, given as negative log EC50, mean ± SEM.
Where [11] appears, read: CHO‐α2C cells, % inhibition from the 3 μM forskolin control, mean ± SEM.
Where [12] appears, read: CHO‐α2C cells, inhibition of 3 μM forskolin‐stimulated CRE‐SPAP production, given as negative log IC50, mean ± SEM.

Where two headings read alike, the source gives them in different places.

With `CNC[C@H](O)c1cccc(O)c1` [R‐phenylephrine], the “% 10 μM PDBu, ERK1/2‐phosphorylation” value in test [1] is 157.0 ± 15.4%. Also, the “% inhibition, CRE‐SPAP (with forskolin)” value in test [2] is recorded as 77.5 ± 3.4%.

Usually IC50 stands for the concentration that inhibits the measured activity by half. Consider `CCC1(c2cnc[nH]2)Cc2ccccc2C1` [Atipamezole], for which the “% 10 μM PDBu, ERK1/2‐phosphorylation” value is reported as 63.7 ± 8.3% in test [1] and 42.4 ± 5.9% in test [4]. The EC50 in test [1] (CHO‐α2C cells, given as negative log EC50, mean ± SEM, read-out: Log EC50, ERK1/2‐phosphorylation (converted)) was 8.32 nM; in test [4] (CHO‐α2A, read-out: Log EC50, ERK1/2‐phosphorylation (converted)) it was 28.8 nM. In addition, the “Log EC50 (Gs), CRE‐SPAP (without forskolin)” value (shortened to “Log EC50 … (without forskolin)”) in test [3] (CHO‐α2A (cell line 1), absence of forskolin) is “No response”; in test [2] (setting [7]), “No response”. Further, the “Log IC50 (Gi), CRE‐SPAP (with forskolin)” value in test [3] (CHO‐α2A (cell line 1, 5830 fmol/mg protein), 3 μM forskolin) is “No response”. Also, the “% inhibition, CRE‐SPAP (with forskolin)” value in test [2] worked out at 15.8 ± 7.5%. This compound also gave an IC50 in test [2] of 200 nM. For the same compound, the “Log efficacy ratio (KD/IC50)” value in test [2] is −1.78.

For the compound `CCc1cccc(CC)c1NC1=NCCN1` [ST‐91], in test [5] (setting [8]), the “Log KD” value is on record as −6.18. For the same compound, in test [1] (setting [9]), the “% 10 μM PDBu, ERK1/2‐phosphorylation” value is given as 154.0 ± 15.0%. In addition, in test [1] (setting [10]), the “Log EC50, ERK1/2‐phosphorylation” value is −7.93 ± 0.17. For the same compound, the “Log efficacy ratio (KD/IC50)” value in test [2] came to 1.28. The “% inhibition, CRE‐SPAP (with forskolin)” value in test [2] (setting [11]) is reported as 76.5 ± 4.4%. Also, the “Log EC50 … (without forskolin)” value in test [2] (setting [7]) is reported as “No response”. For the same compound, the “Log IC50 (Gi), CRE‐SPAP (with forskolin)” value in test [2] (setting [12]) is given as −7.46 ± 0.09.

Consider `COC(=O)[C@@H]1[C@H]2C[C@H]3c4[nH]c5ccccc5c4CCN3C[C@@H]2CC[C@@H]1O` [yohimbine], for which, in test [3], the “Schild slope (Gi), dexmedetomidine as agonist” value is given as 1.11 ± 0.07; the “Schild slope, inhibitory (Gi) component” value is listed as 1.00 ± 0.08; the “Schild slope, stimulatory (Gs) component” value worked out at 0.92 ± 0.11.

Consider `C1=C(c2cnc[nH]2)c2ccsc2CC1` [RWJ52353], for which the “Log KD (apparent), CHO‐α2C” value in test [5] (3H‐rauwolscine whole cell binding, ^app: apparent KD, IC50 from extrapolated curve as not all specific binding was inhibited) is given as −4.67 ± 0.08^app. Further, the “Log KD” value in test [5] (setting [8]) is −4.67. Besides, the “% 10 μM PDBu, ERK1/2‐phosphorylation” value in test [1] (setting [9]) was 143.5 ± 14.0%. Moreover, the “Log EC50, ERK1/2‐phosphorylation” value in test [1] (setting [10]) is −7.74 ± 0.09. Further, the “Log efficacy ratio (KD/IC50)” value in test [2] is reported as 1.80. Besides, the “% inhibition, CRE‐SPAP (with forskolin)” value in test [2] (setting [11]) came out at 76.5 ± 5.6%. Moreover, the “Log EC50 … (without forskolin)” value in test [2] (setting [7]) is “No response”. In addition, in test [2] (setting [12]), the “Log IC50 (Gi), CRE‐SPAP (with forskolin)” value is −6.47 ± 0.10.

Consider `CC(N)C(O)c1ccc(O)c(O)c1` (stereo not drawn) [α‐methylnorepinephrine], for which the “Log KD” value in test [5] is on record as −5.16. In test [6], the “Log KD (apparent), CHO‐α2A” value is listed as −3.69 ± 0.04^app and the “Log KD (binding)” value is reported as −3.69. In test [3], the “% 3 μM forskolin, CRE‐SPAP (without forskolin)” value was found to be 171.1 ± 4.3%; the “Log EC50 (Gs), CRE‐SPAP (with forskolin)” value is reported as −5.31 ± 0.05; the “Log EC50 … (without forskolin)” value is reported as −5.29 ± 0.02; the “Log IC50 (Gi), CRE‐SPAP (with forskolin)” value is recorded as −6.47 ± 0.05. For the same compound, the “% 10 μM PDBu, ERK1/2‐phosphorylation” value in test [4] turned out to be 142.6 ± 22.3%. In test [2], the “% inhibition, CRE‐SPAP (with forskolin)” value stood at 85.2 ± 3.0%; the “Log EC50 … (without forskolin)” value is “No response”; the “Log IC50 (Gi), CRE‐SPAP (with forskolin)” value is recorded as −6.52 ± 0.12.

Turning to `COc1ccc(CC(C)NCC(O)c2ccc(O)c(NC=O)c2)cc1` (stereo not drawn) [Formoterol], the half-maximal inhibitory concentration (IC50) was over 100 µM in test [5]; over 100 µM in test [5] (read-out: IC50 in binding, CHO‐α2C); over 100 µM in test [6]; over 100 µM in test [6] (read-out: IC50 in binding, CHO‐α2A). Moreover, the “Log EC50 … (without forskolin)” value in test [3] and in test [2] was “No response” in each case. For the same compound, the “Log IC50 (Gi), CRE‐SPAP (with forskolin)” value in test [3] and in test [2] was “No response” in each case.

On to `CC(Cc1ccc(O)cc1)NCC(O)c1cc(O)cc(O)c1` (stereo not drawn) [Fenoterol], for which the Kd in test [5] (Log KD) is 151 µM; in test [5] (Log KD (apparent), CHO‐α2C) it was 151 µM; in test [6] (Log KD (apparent), CHO‐α2A) it was 347 ± 5.01 µM; in test [6] (Log KD (binding)) it was 347 µM. For the same compound, the “Log EC50 … (without forskolin)” value in test [3] and in test [2] was “No response” each time. Further, the “Log IC50 (Gi), CRE‐SPAP (with forskolin)” value in test [3] and in test [2] was “No response” throughout.
